Our source for the IC50, Activity and Kd values is ChEMBL document CHEMBL4190401, “Lung cancer and matrix metalloproteinases inhibitors of polyphenols from Selaginella tamariscina with suppression activity of migration” (Bioorg Med Chem Lett, 2018).

For one assay, the system named is T-24. Kind of assay: Cytotoxicity against human T24 cells assessed as reduction in cell viability after 48 hrs by MTT assay. Type of assay: functional, cell-based. The following applies: T-24, 48 h. (Tetrazolium assays rely on reduction of a dye to a coloured formazan, in cell work by metabolically active cells.)
The next assay has as its system MGC-803. Kind of assay: Cytotoxicity against human MGC803 cells assessed as reduction in cell viability after 48 hrs by MTT assay. The note with it: MGC-803, 48 h. Type of assay: functional, cell-based.
In assay [1] the test system is A549. The assay is described as follows: Cytotoxicity against human A549 cells assessed as reduction in cell viability after 48 hrs by MTT assay. Type of assay: functional, cell-based. The following applies: A549, 48 h.
The next assay has as its system HepG2. The assay is described as follows: Cytotoxicity against human HepG2 cells assessed as reduction in cell viability after 48 hrs by MTT assay. The note with it: HepG2, 48 h. It is filed as functional, cell-based.
Assay [2] concerns the target T1, Matrix metalloproteinase-9 (Homo sapiens, UniProt P14780). The assay is described as follows: Inhibition of recombinant human MMP9 preincubated for 30 mins followed by McaPro-Leu-Gly-Leu-Dpa-Ala-Arg-NH2 substrate addition measured by fluorescence assay.
Another assay deals with Stromelysin-1 (Homo sapiens, UniProt P08254). The assay is described as follows: Inhibition of recombinant human MMP3 preincubated for 30 mins followed by McaPro-Leu-Gly-Leu-Dpa-Ala-Arg-NH2 substrate addition measured by fluorescence assay.
Assay [3] addresses 72 kDa type IV collagenase (Homo sapiens, UniProt P08253). Kind of assay: Inhibition of recombinant human MMP2 preincubated for 30 mins followed by McaPro-Leu-Gly-Leu-Dpa-Ala-Arg-NH2 substrate addition measured by fluorescence assay.
Assay [4] has as its system A549. The assay is described as follows: Induction of apoptosis in human A549 cells assessed as live cells at 20 uM after 24 hrs by Annexin V-FITC/propidium iodide staining based flow cytometry (reference value: 91.9%). It is filed as functional.
The test system of assay [5] is A549. Kind of assay: Induction of apoptosis in human A549 cells assessed as increase in caspase-3 level after 24 hrs by Western blot method. Type of assay: functional, cell-based. (In general: A western blot detects proteins with antibodies after separation by electrophoresis.)
Assay [6] concerns the target T1, Matrix metalloproteinase-9. Kind of assay: Binding affinity to MMP9 (unknown origin) by SPR assay.
In assay [7] the test system is A549. The assay is described as follows: Induction of apoptosis in human A549 cells assessed as early apoptotic cells at 10 uM after 24 hrs by Annexin V-FITC/propidium iodide staining based flow cytometry (reference value: 1.2%). It is filed as functional.
The subject of assay [8] is A549. Kind of assay: Induction of apoptosis in human A549 cells after 24 hrs by Annexin V-FITC/propidium iodide staining based flow cytometry. Type of assay: functional, cell-based. Background: In flow cytometry, cells or beads pass a laser one at a time.
Assay [9] deals with A549. Kind of assay: Induction of apoptosis in human A549 cells assessed as live cells at 40 uM after 24 hrs by Annexin V-FITC/propidium iodide staining based flow cytometry (reference value: 91.9%). Type of assay: functional.
For assay [10], the system named is A549. Kind of assay: Induction of apoptosis in human A549 cells assessed as late apoptotic cells at 20 uM after 24 hrs by Annexin V-FITC/propidium iodide staining based flow cytometry (reference value: 2.8%). Type of assay: functional.
Assay [11] deals with A549. Kind of assay: Induction of apoptosis in human A549 cells assessed as decrease in Bcl-2 level at 10 to 40 uM after 24 hrs by Western blot method. It is filed as functional, cell-based.
Assay [12] concerns A549. The assay is described as follows: Antimigratory activity against human A549 cells assessed as inhibition of wound healing at 10 to 20 uM after 24 hrs by phase contrast microscopic method. Type of assay: functional, cell-based.
For assay [13], the system named is A549. Kind of assay: Induction of apoptosis in human A549 cells assessed as late apoptotic cells at 40 uM after 24 hrs by Annexin V-FITC/propidium iodide staining based flow cytometry (reference value: 2.8%). Type of assay: functional.
Assay [14] concerns A549. Kind of assay: Induction of apoptosis in human A549 cells assessed as live cells at 10 uM after 24 hrs by Annexin V-FITC/propidium iodide staining based flow cytometry (reference value: 91.9%). It is filed as functional.
Assay [15] relates to A549. Kind of assay: Induction of apoptosis in human A549 cells assessed as increase in Bax level after 24 hrs by Western blot method. Type of assay: functional, cell-based.
Assay [16] relates to A549. The assay is described as follows: Induction of apoptosis in human A549 cells at 10 to 40 uM after 24 hrs by acridine orange/ethidium bromide double staining based fluorescence microscopic method. Type of assay: functional, cell-based.
Assay [17] relates to A549. Kind of assay: Induction of apoptosis in human A549 cells assessed as early apoptotic cells at 20 uM after 24 hrs by Annexin V-FITC/propidium iodide staining based flow cytometry (reference value: 1.2%). Type of assay: functional.
For assay [18], the system named is A549. Kind of assay: Induction of apoptosis in human A549 cells assessed as increase in caspase-9 level at 10 to 40 uM after 24 hrs by Western blot method. It is filed as functional, cell-based.
For assay [19], the system named is A549. The assay is described as follows: Induction of apoptosis in human A549 cells assessed as late apoptotic cells at 10 uM after 24 hrs by Annexin V-FITC/propidium iodide staining based flow cytometry (reference value: 2.8%). Type of assay: functional.
Assay [20] relates to A549. Kind of assay: Induction of apoptosis in human A549 cells assessed as early apoptotic cells at 40 uM after 24 hrs by Annexin V-FITC/propidium iodide staining based flow cytometry (reference value: 1.2%). Type of assay: functional.

The source made the active and inactive calls. The calls are words filed in the database; no cut-off is given here.

Stromelysin-1, sequence (P08254 whole entry): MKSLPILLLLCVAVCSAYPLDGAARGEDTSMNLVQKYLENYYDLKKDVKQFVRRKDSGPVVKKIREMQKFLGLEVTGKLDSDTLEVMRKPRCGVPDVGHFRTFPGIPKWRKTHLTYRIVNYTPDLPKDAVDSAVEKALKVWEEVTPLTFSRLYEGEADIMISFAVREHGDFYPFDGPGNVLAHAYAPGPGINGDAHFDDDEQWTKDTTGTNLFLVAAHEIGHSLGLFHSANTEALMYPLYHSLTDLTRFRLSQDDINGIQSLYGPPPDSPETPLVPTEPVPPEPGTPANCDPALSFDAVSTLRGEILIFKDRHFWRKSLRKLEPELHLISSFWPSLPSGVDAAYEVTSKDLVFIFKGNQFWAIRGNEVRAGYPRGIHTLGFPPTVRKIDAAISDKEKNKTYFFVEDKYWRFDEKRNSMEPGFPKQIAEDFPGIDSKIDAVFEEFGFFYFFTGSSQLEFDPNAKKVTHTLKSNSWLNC
72 kDa type IV collagenase, sequence (P08253 whole entry): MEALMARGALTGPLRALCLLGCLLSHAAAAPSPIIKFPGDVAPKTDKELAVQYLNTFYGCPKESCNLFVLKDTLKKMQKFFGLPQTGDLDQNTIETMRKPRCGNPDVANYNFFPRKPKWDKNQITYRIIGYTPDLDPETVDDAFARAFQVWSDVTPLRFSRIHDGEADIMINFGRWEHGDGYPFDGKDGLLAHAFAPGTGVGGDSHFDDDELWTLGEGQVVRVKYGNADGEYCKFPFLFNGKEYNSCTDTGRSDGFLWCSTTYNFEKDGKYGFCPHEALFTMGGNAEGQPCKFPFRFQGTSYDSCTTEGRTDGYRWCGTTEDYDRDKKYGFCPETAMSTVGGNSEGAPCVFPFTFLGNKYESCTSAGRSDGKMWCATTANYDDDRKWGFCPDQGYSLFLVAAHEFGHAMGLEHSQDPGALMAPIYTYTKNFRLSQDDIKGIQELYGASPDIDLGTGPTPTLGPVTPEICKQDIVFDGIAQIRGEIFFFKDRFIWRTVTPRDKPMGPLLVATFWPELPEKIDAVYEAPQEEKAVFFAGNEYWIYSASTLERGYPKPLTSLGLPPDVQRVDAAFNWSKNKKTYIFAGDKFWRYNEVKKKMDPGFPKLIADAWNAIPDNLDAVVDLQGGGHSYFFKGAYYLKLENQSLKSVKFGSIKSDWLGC
T1 sequence (P14780 whole entry): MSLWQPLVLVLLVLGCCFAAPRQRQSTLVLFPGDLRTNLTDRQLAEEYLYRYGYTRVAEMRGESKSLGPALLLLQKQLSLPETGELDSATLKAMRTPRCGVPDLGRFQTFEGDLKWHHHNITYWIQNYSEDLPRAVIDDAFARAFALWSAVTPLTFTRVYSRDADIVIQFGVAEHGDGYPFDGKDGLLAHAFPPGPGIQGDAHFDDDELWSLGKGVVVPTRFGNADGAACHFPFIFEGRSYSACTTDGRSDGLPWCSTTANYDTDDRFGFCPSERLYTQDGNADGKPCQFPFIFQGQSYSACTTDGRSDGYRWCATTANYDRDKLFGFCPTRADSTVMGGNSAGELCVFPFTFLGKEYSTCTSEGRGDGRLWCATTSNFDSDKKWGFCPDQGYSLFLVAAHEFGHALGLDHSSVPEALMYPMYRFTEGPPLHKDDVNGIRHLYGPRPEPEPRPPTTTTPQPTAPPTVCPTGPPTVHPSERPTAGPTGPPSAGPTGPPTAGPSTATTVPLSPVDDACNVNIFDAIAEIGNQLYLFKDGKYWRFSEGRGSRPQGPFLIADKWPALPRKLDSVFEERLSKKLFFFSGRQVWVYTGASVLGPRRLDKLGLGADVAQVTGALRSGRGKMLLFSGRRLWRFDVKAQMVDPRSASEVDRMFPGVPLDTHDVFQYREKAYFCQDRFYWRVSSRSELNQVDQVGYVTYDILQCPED

For orientation: IC50 means the concentration that gives 50% inhibition. As to `CC[C@@]1(O)C(=O)OCc2c1cc1n(c2=O)Cc2cc3cc(O)ccc3nc2-1` [HYDROXYCAMPTOTHECIN], the IC50 in the assay on T-24 was found to be 11.8 µM; in the assay on MGC-803 it was 6.55 µM; in the assay on A549 [1], 1.75 µM; in the assay with HepG2, 3.19 µM.
Take `O=C(O)c1c(-c2ccc(O)cc2)ccc(CO)c1C#Cc1ccc(O)cc1`: the IC50 in the assay with T-24 is 37.1 µM; in the assay on MGC-803 it was 32.6 µM; in assay [2] it was 41 µM; in the assay with A549 [1] it was 34.1 µM; in the assay with HepG2 it was 30.2 µM; at Stromelysin-1 (read-out: IC50), 82.6 µM. Also, the IC50 in [3] turned out to be 85.3 µM.
Consider `O=C(c1ccc(O)cc1)c1cc(-c2ccc(O)cc2)c(-c2ccc(O)cc2)c(-c2ccc(O)cc2)c1`, for which the IC50 in the assay on T-24 was greater than 50 µM; in the assay with MGC-803 it was greater than 50 µM; in [2] it was greater than 100 µM; in the assay on A549 [1], greater than 50 µM; in the assay on HepG2 it was greater than 50 µM; on Stromelysin-1 (read-out: IC50) it was 66.1 µM. Also, the IC50 in assay [3] is 54.2 µM.
Consider `COc1ccc(-c2cc(=O)c3c(O)cc(O)cc3o2)cc1-c1c(O)cc2c(c1O)C(=O)CC(c1ccc(O)cc1)O2` (stereo not given), for which the IC50 with T-24 was greater than 50 µM; in the assay with MGC-803, greater than 50 µM; in assay [2] it was 37.4 µM; with A549 [1], greater than 50 µM; in the assay with HepG2, greater than 50 µM; at Stromelysin-1, “Not Active”. For the same compound, in [3], the IC50 was greater than 100 µM.
In the case of `O=C1OCc2ccc(-c3ccc(O)cc3)c(C(=O)c3ccc(O)cc3)c21`, the IC50 stood at 23.4 µM in the assay on T-24; 26.4 µM with MGC-803; 36 µM in assay [2]; 21.9 µM in the assay with A549 [1]; 24.8 µM with HepG2; 40.9 µM on Stromelysin-1 (read-out: IC50). The IC50 in assay [3] amounted to 81.2 µM.
What is called Kd is the constant that tells how readily two partners part at equilibrium. Low values mean higher affinity, high ones lower affinity. Take `O=c1cc(-c2ccc(O)c(-c3c(O)cc(O)c4c(=O)cc(-c5ccc(O)cc5)oc34)c2)oc2cc(O)cc(O)c12` [AMENTOFLAVONE]: the IC50 in the assay on T-24 was 10.7 µM; in the assay on MGC-803, 9.86 µM; in [2], 2.58 µM; in the assay with A549 [1], 8.36 µM; in the assay with HepG2, 9.13 µM; on Stromelysin-1 (read-out: IC50), greater than 100 µM. For the same compound, in assay [3], the 50% inhibitory concentration (IC50) was found to be 30.3 µM. Moreover, the Activity is 59% in the assay on A549 [4]; “Dose-dependent effect” in the assay with A549 [5]; 2.5% in the assay with A549 [7]; “Dose-dependent effect” with A549 [8]; 57.2% in the assay with A549 [9]; 28.3% in the assay on A549 [10]. Also, the Activity in the assay with A549 [13] was 34.3%; in the assay with A549 [14] it was 86%; in the assay on A549 [15], “Dose-dependent effect”; in the assay on A549 [17], 9.5%; in the assay with A549 [19], 7.9%; with A549 [20] it was 6.4%. Besides, the Kd in assay [6] is 2.18 µM. The result in the assay with A549 [11], with A549 [12], with A549 [16] and in the assay on A549 [18] was Active.
With `COc1ccc(C2CC(=O)c3c(O)cc(O)cc3O2)cc1-c1c(O)cc2c(c1O)C(=O)CC(c1ccc(O)cc1)O2` (stereo not given), the 50% inhibitory concentration (IC50) is 27.4 µM in the assay with T-24; 26 µM in the assay with MGC-803; 25.4 µM in assay [2]; 27.7 µM in the assay on A549 [1]; 28.2 µM in the assay on HepG2; “Not Active” at Stromelysin-1. Further, in assay [3], the IC50 is 35.7 µM.
As for `COc1ccc(-c2cc(=O)c3c(O)cc(O)cc3o2)cc1-c1c(O)cc2oc(-c3ccc(O)cc3)cc(=O)c2c1O`, the IC50 with T-24 was determined as 25.8 µM; in the assay with MGC-803, 21.8 µM; in [2], 26.1 µM; in the assay on A549 [1], 25.6 µM; in the assay with HepG2, 26.6 µM; at Stromelysin-1 (read-out: IC50), 37.3 µM. Moreover, the IC50 in [3] was greater than 100 µM.
For the compound `COc1ccc(-c2cc(=O)c3c(O)cc(O)cc3o2)cc1-c1c(O)cc(O)c2c(=O)cc(-c3ccc(O)cc3)oc12` [BILOBETIN], the IC50 was greater than 50 µM with T-24; greater than 50 µM in the assay on MGC-803; 10.3 µM in assay [2]; greater than 50 µM with A549 [1]; greater than 50 µM in the assay on HepG2; greater than 100 µM at Stromelysin-1 (read-out: IC50). Also, the IC50 in assay [3] was greater than 100 µM.
For the compound `O=C(/C=C(\c1ccccc1)c1c(-c2ccc(O)cc2)cccc1-c1ccc(O)cc1)c1ccc(O)cc1`, the IC50 with T-24 was greater than 50 µM; in the assay on MGC-803, greater than 50 µM; in assay [2], 24.7 µM; with A549 [1], greater than 50 µM; in the assay on HepG2, greater than 50 µM; at Stromelysin-1 (read-out: IC50) it was greater than 100 µM. For the same compound, the IC50 in [3] was greater than 100 µM.
With `O=c1cc(-c2ccc(O)c(-c3c(O)cc4oc(-c5ccc(O)cc5)cc(=O)c4c3O)c2)oc2cc(O)cc(O)c12` [ROBUSTAFLAVONE], the IC50 in the assay on T-24 is 21.1 µM; in the assay on MGC-803 it was 15.6 µM; in assay [2] it was 11.8 µM; in the assay with A549 [1], 21.4 µM; in the assay with HepG2, 19.2 µM; on Stromelysin-1, “Not Active”. The IC50 in assay [3] is 10.2 µM.
`COc1ccc(C2CC(=O)c3c(O)cc(O)cc3O2)cc1-c1c(O)cc(O)c2c(=O)cc(-c3ccc(O)cc3)oc12` (stereo not given): the half-maximal inhibitory concentration (IC50) came out at 34.9 µM in the assay on T-24; 36.5 µM in the assay with MGC-803; 29.3 µM in [2]; 31.2 µM in the assay on A549 [1]; 35 µM in the assay with HepG2; 74.3 µM at Stromelysin-1 (read-out: IC50). The half-maximal inhibitory concentration (IC50) in [3] turned out to be 45.8 µM.
For the compound `O=C1OC(c2ccc(O)cc2)(c2ccc(O)cc2)c2c(-c3ccc(O)cc3)ccc(CO)c21`, the half-inhibitory concentration (IC50) is 12.7 µM with T-24; 13.8 µM with MGC-803; 18.3 µM in assay [2]; 11 µM with A549 [1]; 15.4 µM with HepG2; 87.8 µM at Stromelysin-1 (read-out: IC50). The IC50 in assay [3] amounted to 53.7 µM.
